{"source": "PubChem BioAssay (NCI)", "test_in_all_cases": "NCI-60 cell line screen, 48 h", "key": {"[1]": {"test_system": "OVCAR-3 ovarian"}, "[2]": {"test_system": "CAKI-1 renal"}, "[3]": {"test_system": "MDA-MB-231 breast"}, "[4]": {"test_system": "NCI/ADR-RES ovarian"}, "[5]": {"test_system": "SF-539 CNS"}, "[6]": {"test_system": "SR leukemia"}, "[7]": {"test_system": "IGROV1 ovarian"}, "[8]": {"test_system": "NCI-H23 lung"}, "[9]": {"test_system": "ACHN renal"}, "[10]": {"test_system": "HCC-2998 colon"}}, "note": "Values joined by “and” are separate entries in the source; they are usually repeats but may differ in a detail not shown here. Equal entries are not always repeated.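 48-hour exposure; five concentrations; linearly interpolated endpoints. The concentration for 50% growth inhibition is given as GI50. TGI denotes the concentration required for complete inhibition of growth.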"}
{"smiles": "COc1ccc(-c2cc(-c3ccccc3)nc(NCCNc3ccnc4cc(Cl)ccc34)n2)cc1", "values": [{"measurement": "GI50", "setting": "[1]", "value": 1.82, "unit": "µM"}, {"measurement": "TGI", "setting": "[1]", "value": 3.39, "unit": "µM"}, {"measurement": "GI50", "setting": "[2]", "value": 1.57, "unit": "µM"}, {"measurement": "TGI", "setting": "[2]", "value": 2.96, "unit": "µM"}, {"measurement": "GI50", "setting": "[3]", "value": 1.81, "unit": "µM"}, {"measurement": "TGI", "setting": "[3]", "value": 3.49, "unit": "µM"}, {"measurement": "GI50", "setting": "[4]", "value": 1.71, "unit": "µM"}, {"measurement": "TGI", "setting": "[4]", "value": 3.79, "unit": "µM"}, {"measurement": "GI50", "setting": "[5]", "value": 1.86, "unit": "µM"}, {"measurement": "TGI", "setting": "[5]", "value": 3.33, "unit": "µM"}, {"measurement": "GI50", "setting": "[6]", "value": 0.435, "unit": "µM"}, {"measurement": "TGI", "setting": "[6]", "value": "> 100", "unit": "µM"}, {"measurement": "GI50", "setting": "[7]", "value": 1.46, "unit": "µM"}, {"measurement": "TGI", "setting": "[7]", "value": 3.18, "unit": "µM"}, {"measurement": "GI50", "setting": "[8]", "value": 1.84, "unit": "µM"}, {"measurement": "TGI", "setting": "[8]", "value": 3.7, "unit": "µM"}, {"measurement": "GI50", "setting": "[9]", "value": 1.7, "unit": "µM"}, {"measurement": "TGI", "setting": "[9]", "value": 3.16, "unit": "µM"}]}
{"smiles": "O=c1[nH]c2ccc([N+](=O)[O-])c(Cl)c2c2ccccc12", "values": [{"measurement": "TGI", "setting": "[10]", "value": 23.6, "unit": "µM"}, {"measurement": "TGI", "setting": "[1]", "value": 17.6, "unit": "µM"}, {"measurement": "TGI", "setting": "[2]", "value": 13.2, "unit": "µM"}, {"measurement": "TGI", "setting": "[3]", "value": 23.6, "unit": "µM"}, {"measurement": "TGI", "setting": "[4]", "value": "> 100", "unit": "µM"}, {"measurement": "TGI", "setting": "[5]", "value": 4.64, "unit": "µM"}, {"measurement": "TGI", "setting": "[6]", "value": 7.59, "unit": "µM"}, {"measurement": "TGI", "setting": "[7]", "value": 28.9, "unit": "µM"}, {"measurement": "TGI", "setting": "[8]", "value": 24.7, "unit": "µM"}, {"measurement": "TGI", "setting": "[9]", "value": 18.9, "unit": "µM"}]}
{"smiles": "COC(=O)[C@]1(C)CCC[C@]2(C)[C@@H]1CCC13C[C@@H](C=CO1)[C@@H](C)CC32O", "note": "(some centres not stated)", "values": [{"measurement": "GI50", "setting": "[1]", "value": 17.8, "unit": "µM"}, {"measurement": "TGI", "setting": "[1]", "value": 46.8, "unit": "µM"}, {"measurement": "GI50", "setting": "[2]", "value": 55.2, "unit": "µM"}, {"measurement": "TGI", "setting": "[2]", "value": "> 100", "unit": "µM"}, {"measurement": "GI50", "setting": "[3]", "value": 65.9, "unit": "µM"}, {"measurement": "TGI", "setting": "[3]", "value": "> 100", "unit": "µM"}, {"measurement": "GI50", "setting": "[4]", "value": "> 100", "unit": "µM"}, {"measurement": "TGI", "setting": "[4]", "value": "> 100", "unit": "µM"}, {"measurement": "GI50", "setting": "[5]", "value": 0.0516, "unit": "µM"}, {"measurement": "TGI", "setting": "[5]", "value": "> 100", "unit": "µM"}, {"measurement": "GI50", "setting": "[6]", "value": 17.1, "unit": "µM"}, {"measurement": "TGI", "setting": "[6]", "value": "> 100", "unit": "µM"}, {"measurement": "GI50", "setting": "[7]", "value": "> 100", "unit": "µM"}, {"measurement": "TGI", "setting": "[7]", "value": "> 100", "unit": "µM"}, {"measurement": "GI50", "setting": "[8]", "value": 20.3, "unit": "µM"}, {"measurement": "TGI", "setting": "[8]", "value": "> 100", "unit": "µM"}, {"measurement": "GI50", "setting": "[9]", "value": "> 100", "unit": "µM"}, {"measurement": "TGI", "setting": "[9]", "value": "> 100", "unit": "µM"}]}
{"smiles": "CCOc1ccc(Nc2nc(-c3c(C)nc4ncccn34)cs2)cc1", "values": [{"measurement": "GI50", "setting": "[10]", "value": 0.0522, "unit": "µM"}, {"measurement": "TGI", "setting": "[10]", "value": 15.7, "unit": "µM"}, {"measurement": "GI50", "setting": "[1]", "value": "< 0.01", "unit": "µM"}, {"measurement": "TGI", "setting": "[1]", "value": 14.6, "unit": "µM"}, {"measurement": "GI50", "setting": "[2]", "value": 0.0144, "unit": "µM"}, {"measurement": "TGI", "setting": "[2]", "value": 15.8, "unit": "µM"}, {"measurement": "GI50", "setting": "[3]", "value": 0.0797, "unit": "µM"}, {"measurement": "TGI", "setting": "[3]", "value": 22.6, "unit": "µM"}, {"measurement": "GI50", "setting": "[4]", "value": "< 0.01", "unit": "µM"}, {"measurement": "TGI", "setting": "[4]", "value": 29.1, "unit": "µM"}, {"measurement": "GI50", "setting": "[5]", "value": 0.0227, "unit": "µM"}, {"measurement": "TGI", "setting": "[5]", "value": 0.0822, "unit": "µM"}, {"measurement": "GI50", "setting": "[6]", "value": 0.0153, "unit": "µM"}, {"measurement": "TGI", "setting": "[6]", "value": 19.7, "unit": "µM"}, {"measurement": "GI50", "setting": "[7]", "value": 0.0797, "unit": "µM"}, {"measurement": "TGI", "setting": "[7]", "value": 26.2, "unit": "µM"}, {"measurement": "GI50", "setting": "[8]", "value": 0.0623, "unit": "µM"}, {"measurement": "TGI", "setting": "[8]", "value": 22.2, "unit": "µM"}, {"measurement": "GI50", "setting": "[9]", "value": 0.0767, "unit": "µM"}, {"measurement": "TGI", "setting": "[9]", "value": 19.5, "unit": "µM"}]}
{"smiles": "N#CCC1(n2cc(-c3ncnc4[nH]ccc34)cn2)CN(C2CCN(C(=O)c3ccnc(C(F)(F)F)c3F)CC2)C1", "values": [{"measurement": "GI50", "setting": "[10]", "value": "> 100", "unit": "µM"}, {"measurement": "TGI", "setting": "[10]", "value": "> 100", "unit": "µM"}, {"measurement": "GI50", "setting": "[1]", "value": "> 100", "unit": "µM"}, {"measurement": "TGI", "setting": "[1]", "value": "> 100", "unit": "µM"}, {"measurement": "GI50", "setting": "[3]", "value": 46.6, "unit": "µM"}, {"measurement": "TGI", "setting": "[3]", "value": "> 100", "unit": "µM"}, {"measurement": "GI50", "setting": "[4]", "value": "> 100", "unit": "µM"}, {"measurement": "TGI", "setting": "[4]", "value": "> 100", "unit": "µM"}, {"measurement": "GI50", "setting": "[5]", "value": 37.9, "unit": "µM"}, {"measurement": "TGI", "setting": "[5]", "value": "> 100", "unit": "µM"}, {"measurement": "GI50", "setting": "[6]", "value": 51.4, "unit": "µM"}, {"measurement": "TGI", "setting": "[6]", "value": "> 100", "unit": "µM"}, {"measurement": "GI50", "setting": "[7]", "value": "> 100", "unit": "µM"}, {"measurement": "TGI", "setting": "[7]", "value": "> 100", "unit": "µM"}, {"measurement": "GI50", "setting": "[8]", "value": "> 100", "unit": "µM"}, {"measurement": "TGI", "setting": "[8]", "value": "> 100", "unit": "µM"}, {"measurement": "GI50", "setting": "[9]", "value": "> 100", "unit": "µM"}, {"measurement": "TGI", "setting": "[9]", "value": "> 100", "unit": "µM"}]}
{"smiles": "NC(N)=N/N=C(/c1ccccc1)c1ccccc1F", "values": [{"measurement": "GI50", "setting": "[10]", "value": 1.39, "unit": "µM"}, {"measurement": "TGI", "setting": "[10]", "value": 4.73, "unit": "µM"}, {"measurement": "GI50", "setting": "[1]", "value": 2.1, "unit": "µM"}, {"measurement": "TGI", "setting": "[1]", "value": 7.55, "unit": "µM"}, {"measurement": "GI50", "setting": "[2]", "value": 4.26, "unit": "µM"}, {"measurement": "TGI", "setting": "[2]", "value": 31.4, "unit": "µM"}, {"measurement": "GI50", "setting": "[3]", "value": 3.34, "unit": "µM"}, {"measurement": "TGI", "setting": "[3]", "value": 11.8, "unit": "µM"}, {"measurement": "GI50", "setting": "[4]", "value": 2.69, "unit": "µM"}, {"measurement": "TGI", "setting": "[4]", "value": 9.74, "unit": "µM"}, {"measurement": "GI50", "setting": "[5]", "value": 0.8, "unit": "µM"}, {"measurement": "TGI", "setting": "[5]", "value": 4.59, "unit": "µM"}, {"measurement": "GI50", "setting": "[6]", "value": 0.809, "unit": "µM"}, {"measurement": "TGI", "setting": "[6]", "value": "> 100", "unit": "µM"}, {"measurement": "GI50", "setting": "[7]", "value": 2.89, "unit": "µM"}, {"measurement": "TGI", "setting": "[7]", "value": "> 50", "unit": "µM"}, {"measurement": "GI50", "setting": "[8]", "value": 5.02, "unit": "µM"}, {"measurement": "TGI", "setting": "[8]", "value": 27.8, "unit": "µM"}, {"measurement": "GI50", "setting": "[9]", "value": 4.49, "unit": "µM"}, {"measurement": "TGI", "setting": "[9]", "value": 20, "unit": "µM"}]}
{"smiles": "Cc1nc2c(Br)cc(Br)cc2c(=O)n1-c1ccccc1NC1OCC(O)C(O)C1O", "note": "(configuration not stated)", "values": [{"measurement": "TGI", "setting": "[10]", "value": "> 100", "unit": "µM"}, {"measurement": "TGI", "setting": "[1]", "value": "69.3 µM and 60.9 µM"}, {"measurement": "TGI", "setting": "[2]", "value": "> 100", "unit": "µM"}, {"measurement": "TGI", "setting": "[3]", "value": "> 100", "unit": "µM"}, {"measurement": "GI50", "setting": "[4]", "value": "43.3 µM and > 100 µM"}, {"measurement": "TGI", "setting": "[4]", "value": "> 100", "unit": "µM"}, {"measurement": "GI50", "setting": "[5]", "value": "48.4 µM and 7.53 µM"}, {"measurement": "TGI", "setting": "[5]", "value": "> 100 µM and 22.3 µM"}, {"measurement": "GI50", "setting": "[6]", "value": "13.2 µM and 6 µM"}, {"measurement": "TGI", "setting": "[6]", "value": "41 µM and 13.6 µM"}, {"measurement": "TGI", "setting": "[7]", "value": "> 100", "unit": "µM"}, {"measurement": "TGI", "setting": "[8]", "value": "> 100", "unit": "µM"}, {"measurement": "TGI", "setting": "[9]", "value": "> 100 µM and 51.8 µM"}]}
